Data: patent US20200288713A1, “PESTICIDALLY ACTIVE PYRAZOLE DERIVATIVES” (SYNGENTA PARTICIPATIONS AG, priority 2017, published 2020)
Read-outs that look alike come from different tables or passages of the source.

Key:
Type in all cases: in vivo
Spodoptera littoralis = Spodoptera littoralis (Egyptian cotton leaf worm) feeding/contact activity; settings: foliar, 72 h
Description: Spodoptera littoralis (Egyptian cotton leaf worm): Feeding/contact activity Cotton leaf discs were placed onto agar in 24-well microtiter plates and sprayed with aqueous test solutions prepared from 10′000 ppm DMSO stock solutions. After drying the leaf discs were infested with five L1 larvae. The samples were assessed for mortality 3 days after infestation.

Myzus persicae = Myzus persicae (green peach aphid) feeding/contact activity; settings: foliar, 144 h
Description: Myzus persicae (Green Peach Aphid): Feeding/Contact Activity
(§1) Sunflower leaf discs were placed onto agar in a 24-well microtiter plate and sprayed with aqueous test solutions prepared from 10′000 ppm DMSO stock solutions. After drying, the leaf discs were infested with an aphid population of mixed ages. The samples were assessed for mortality 6 days after infestation.

Euschistus heros = Euschistus heros (neotropical brown stink bug) feeding/contact activity; settings: 120 h
Description: Euschistus heros (Neotropical Brown Stink Bug): Feeding/Contact Activity
Soybean leaves on agar in 24-well microtiter plates were sprayed with aqueous test solutions prepared from 10′000 ppm DMSO stock solutions. After drying the leaves were infested with N2 nymphs. The samples were assessed for mortality 5 days after infestation.

Thrips tabaci = Thrips tabaci (onion thrips) feeding/contact activity; settings: foliar, 144 h
Description: Thrips tabaci (Onion Thrips): Feeding/Contact Activity
as §1, with “on” for “onto”, “in” for “in a”, “plates” for “plate”, “drying” for “drying,”, “a thrips” for “an aphid”

Tetranychus urticae = Tetranychus urticae (two-spotted spider mite) feeding/contact activity; settings: foliar, 192 h, read-out: mortality on mixed population (mobile stages)
Description: Tetranychus urticae (Two-Spotted Spider Mite): Feeding/Contact Activity
Bean leaf discs on agar in 24-well microtiter plates were sprayed with aqueous test solutions prepared from 10′000 ppm DMSO stock solutions. After drying the leaf discs were infested with a mite population of mixed ages. The samples were assessed for mortality on mixed population (mobile stages) 8 days after infestation.

Plutella xylostella = Plutella xylostella (diamond back moth) feeding/contact activity; settings: 120 h
Description: Plutella xylostella (Diamond Back Moth): Feeding/Contact Activity
24-well microtiter plates with artificial diet were treated with aqueous test solutions prepared from 10′000 ppm DMSO stock solutions by pipetting. After drying, the plates were infested with L2 larvae (10 to 15 per well). The samples were assessed for mortality 5 days after infestation.

Diabrotica balteata = Diabrotica balteata (corn root worm) mortality test on maize sprouts; settings: 96 h, application rate 200 ppm, L2 larvae on sprayed maize sprouts, assessed 4 days after infestation
Description: Diabrotica balteata (Corn Root Worm):
Maize sprouts placed onto an agar layer in 24-well microtiter plates were treated with aqueous test solutions prepared from 10′000 ppm DMSO stock solutions by spraying. After drying, the plates were infested with L2 larvae (6 to 10 per well). The samples were assessed for mortality 4 days after infestation.

[1] = application rate 200 ppm, L1 larvae on sprayed cotton leaf discs, assessed 3 days after infestation, read-out: mortality
[2] = application rate 200 ppm, aphid population of mixed ages on sprayed sunflower leaf discs, assessed 6 days after infestation, read-out: mortality
[3] = application rate 200 ppm, N2 nymphs on sprayed soybean leaves, assessed 5 days after infestation, read-out: mortality
[4] = application rate 200 ppm, thrips population of mixed ages on sprayed sunflower leaf discs, assessed 6 days after infestation, read-out: mortality
[5] = application rate 200 ppm, mite population of mixed ages on sprayed bean leaf discs, assessed 8 days after infestation
[6] = application rate 200 ppm, L2 larvae on treated artificial diet, assessed 5 days after infestation, read-out: mortality

Measured: mortality at 200 ppm

Cn1nc(C(F)(F)C(F)(F)F)c(OC(F)F)c1-n1cc(-c2ccc(C(F)(F)F)c(C(=O)NC3(C#N)CC3)c2)cn1 [Compound 1, N-(1-cyanocyclopropyl)-5-[1-[4-(difluoromethoxy)-2-methyl-5-(1,1,2,2,2-pentafluoroethyl)pyrazol-3-yl]pyrazol-4-yl]-2-(trifluoromethyl)benzamide]
≥ 80%: Spodoptera littoralis; [1] | Myzus persicae; [2] | Euschistus heros; [3] | Thrips tabaci; [4] | Tetranychus urticae; [5] | Plutella xylostella; [6] | Diabrotica balteata

CN(C(=O)c1cc(-c2cnn(-c3c(OC(F)F)c(C(F)(F)C(F)(F)F)nn3C)c2)ccc1C(F)(F)F)C1(C#N)CC1 [Compound 2, N-(1-cyanocyclopropyl)-5-[1-[4-(difluoromethoxy)-2-methyl-5-(1,1,2,2,2-pentafluoroethyl)pyrazol-3-yl]pyrazol-4-yl]-N-methyl-2-(trifluoromethyl)benzamide]
≥ 80%: Spodoptera littoralis; [1] | Myzus persicae; [2] | Euschistus heros; [3] | Thrips tabaci; [4] | Tetranychus urticae; [5] | Plutella xylostella; [6] | Diabrotica balteata

CCN(C(=O)c1cc(-c2cnn(-c3c(OC(F)F)c(C(F)(F)C(F)(F)F)nn3C)c2)ccc1C(F)(F)F)C1(C#N)CC1 [Compound 3, N-(1-cyanocyclopropyl)-5-[1-[4-(difluoromethoxy)-2-methyl-5-(1,1,2,2,2-pentafluoroethyl)pyrazol-3-yl]pyrazol-4-yl]-N-ethyl-2-(trifluoromethyl)benzamide]
≥ 80%: Spodoptera littoralis; [1] | Myzus persicae; [2] | Euschistus heros; [3] | Thrips tabaci; [4] | Tetranychus urticae; [5] | Plutella xylostella; [6] | Diabrotica balteata

Cn1nc(C(F)(F)C(F)(F)F)c(OC(F)F)c1-n1cc(-c2ccc(C(F)(F)F)c(C(=O)NC3CC3)c2)cn1 [Compound 4, N-cyclopropyl-5-[1-[4-(difluoromethoxy)-2-methyl-5-(1,1,2,2,2-pentafluoroethyl)pyrazol-3-yl]pyrazol-4-yl]-2-(trifluoromethyl)benzamide]
≥ 80%: Spodoptera littoralis; [1] | Myzus persicae; [2] | Euschistus heros; [3] | Thrips tabaci; [4] | Tetranychus urticae; [5] | Plutella xylostella; [6] | Diabrotica balteata

Cn1nc(C(F)(F)C(F)(F)F)c(OC(F)F)c1-n1cc(-c2ccc(C(F)(F)F)c(C(=O)N(CC3CC3)C3(C#N)CC3)c2)cn1 [Compound 5, N-(1-cyanocyclopropyl)-N-(cyclopropylmethyl)-5-[1-[4-(difluoromethoxy)-2-methyl-5-(1,1,2,2,2-pentafluoroethyl)pyrazol-3-yl]pyrazol-4-yl]-2-(trifluoromethyl)benzamide]
≥ 80%: Spodoptera littoralis; [1] | Myzus persicae; [2] | Euschistus heros; [3] | Thrips tabaci; [4] | Plutella xylostella; [6]

CC(=O)N(C(=O)c1cc(-c2cnn(-c3c(OC(F)F)c(C(F)(F)C(F)(F)F)nn3C)c2)ccc1C(F)(F)F)C1(C#N)CC1 [Compound 6, N-acetyl-N-(1-cyanocyclopropyl)-5-[1-[4-(difluoromethoxy)-2-methyl-5-(1,1,2,2,2-pentafluoroethyl)pyrazol-3-yl]pyrazol-4-yl]-2-(trifluoromethyl)benzamide]
≥ 80%: Spodoptera littoralis; [1] | Myzus persicae; [2] | Euschistus heros; [3] | Thrips tabaci; [4] | Tetranychus urticae; [5] | Plutella xylostella; [6]

COCN(C(=O)c1cc(-c2cnn(-c3c(OC(F)F)c(C(F)(F)C(F)(F)F)nn3C)c2)ccc1C(F)(F)F)C1(C#N)CC1 [Compound 7, N-(1-cyanocyclopropyl)-5-[1-[4-(difluoromethoxy)-2-methyl-5-(1,1,2,2,2-pentafluoroethyl)pyrazol-3-yl]pyrazol-4-yl]-N-(methoxymethyl)-2-(trifluoromethyl)benzamide]
≥ 80%: Spodoptera littoralis; [1] | Myzus persicae; [2] | Euschistus heros; [3] | Thrips tabaci; [4] | Tetranychus urticae; [5] | Plutella xylostella; [6]

Cn1nc(C(F)(F)C(F)(F)F)c(OC(F)F)c1-n1cc(-c2ccc(C(F)(F)F)c(C(=O)N(CC#N)C3(C#N)CC3)c2)cn1 [Compound 8, N-(1-cyanocyclopropyl)-N-(cyanomethyl)-5-[1-[4-(difluoromethoxy)-2-methyl-5-(1,1,2,2,2-pentafluoroethyl)pyrazol-3-yl]pyrazol-4-yl]-2-(trifluoromethyl)benzamide]
≥ 80%: Spodoptera littoralis; [1] | Myzus persicae; [2] | Euschistus heros; [3] | Thrips tabaci; [4] | Tetranychus urticae; [5] | Plutella xylostella; [6]

CCOC(=O)N(C(=O)c1cc(-c2cnn(-c3c(OC(F)F)c(C(F)(F)C(F)(F)F)nn3C)c2)ccc1C(F)(F)F)C1(C#N)CC1 [Compound 9, ethyl N-(1-cyanocyclopropyl)-N-[5-[1-[4-(difluoromethoxy)-2-methyl-5-(1,1,2,2,2-pentafluoroethyl)pyrazol-3-yl]pyrazol-4-yl]-2-(trifluoromethyl)benzoyl]carbamate]
≥ 80%: Spodoptera littoralis | Myzus persicae | Euschistus heros; in Glycine max | Thrips tabaci | Tetranychus urticae | Plutella xylostella

C#CCN(C(=O)c1cc(-c2cnn(-c3c(OC(F)F)c(C(F)(F)C(F)(F)F)nn3C)c2)ccc1C(F)(F)F)C1(C#N)CC1 [Compound 10]
≥ 80%: Spodoptera littoralis; [1] | Myzus persicae; [2] | Euschistus heros; [3] | Thrips tabaci; [4] | Tetranychus urticae; [5] | Plutella xylostella; [6]
